Measured values published in article PMC2765639 (PLoS Neglected Tropical Diseases, 2009).
Read-outs that look alike come from different tables or passages of the source.

Legend:
HeLa = assay: Mammalian cell line specificity assay (alamar blue); format: cell-based, human; details: 44–46 h, alamar blue, read-out: HeLa EC50 (AVE±SD)
Method: (§1) Mammalian cells were cultured and maintained according to ATCC specifications (ATCC, Manassas, VA). Cell line drug susceptibility assays were performed in final volumes of 25 µL using our previously described 384-well microtiter plate format,[39]. […] Test and control compounds were added to individual wells as described above. Vehicle and positive controls were 1% DMSO and 10% DMSO, respectively (final well concentrations). Assay plates were incubated for 44–46 h at 37°C in the presence of 5% CO2 and growth inhibitory effects were determined as described above. Five µL of alamar blue reagent was added to each well and incubated for 2–4 h. Data were captured as described above.

A549 = assay: as above; format: cell-based, human
Method: as §1

MDA-MB-231 = assay: as above; format: cell-based, human; details: 44–46 h, alamar blue, read-out: MDA EC50 (AVE±SD)
Method: as §1

IMR-90 = assay: as above; format: cell-based, human; details: 44–46 h, alamar blue, read-out: IMR90 EC50 (AVE±SD)
Method: as §1

PC-3 = assay: as above; format: cell-based, human; details: 44–46 h, alamar blue, read-out: PC-3 EC50 (AVE±SD)
Method: as §1

[1] = tested on: L. major axenic amastigote-like population; assay: L. major axenic amastigote-like alamar blue assay (pH 4.9); format: cell-based, Leishmania major; details: for growth inhibitory activity in axenic amastigote-like assay: pH 4.9
L. major promastigotes [2] = assay: L. major promastigote drug susceptibility assay (alamar blue, 384-well); format: cell-based, Leishmania major
Method: Promastigotes were grown in vented T75 tissue culture flasks and maintained at 28°C. Promastigote cultures were initiated at 10^5 parasites per mL and subcultured every 3–4 days. L. major promastigote counts were performed in duplicate using a hemocytometer and particle counter (Beckman Coulter, Fullerton, CA). For HTS assays, L. major promastigote cultures were harvested during exponential growth phase (∼2.0–3.0×10^7 parasites/mL) and were not maintained past passage 20.
The final test compound concentration was 10 µM with a constant DMSO concentration of 1% in each assay well.
The L. major promastigote drug susceptibility assay was performed in a final volume of 25 µL using our previously described 384-well microtiter plate format,[39]. For automated HTS procedures, L. major promastigotes (5,000 parasites/22 µL) in complete growth medium were seeded into each well of the microtiter plates using a MAPC2 bulk dispenser (Titertek, Huntsville, AL). Test and control compounds (3 µL) were added to individual wells using a Velocity 11 V-prep (Menlo Park, CA) liquid handling system, equipped with a 384-well dispensing head, followed by centrifugation at 50 g for 1 min. […] Assay plates were allowed to incubate for 44 h at 28°C in the presence of 5% CO2. Five µL of alamar blue reagent were added to each assay plate well and incubated for 4 h at 28°C with 5% CO2. Data were captured on a Molecular Devices SpectraMax M5 (excitation560; emission590). Individual assay plate Z-factors were derived from the vehicle and positive controls, and data from plates were used only if Z-factors were >0.5 [50].
The assays were performed in duplicate with a final 10-point concentration range spanning 0.01–5.00 µM.

L. major promastigotes [3] = assay: Flow cytometer-based growth inhibition and cytotoxicity assay; details: 48 h, read-out: L. major promastigote EC50 (AVE±SD) Confirmation Flow Cytometry
L. major = assay: In vivo murine CL efficacy study (footpad lesion model); parameters: species or system Balb/c mice; details: for decrease in footpad thickness: 40 mg/kg; for reduction in footpad thickness: 160 mg/kg, vs vehicle
Method: Adult female Balb/c mice (6 to 10 week old) were obtained from (Charles River Laboratories, Wilmington, MA) and maintained as outlined by the National Institutes of Health Guide for the Care and Use of Laboratory Animals. All in vivo studies were carried out in accordance with protocols approved by the Institutional Animal Care and Use Committee (IACUC) at the University of Miami (IACUC number C01-08). Food and water were supplied ad libitum. […] Animals were examined daily to determine lesion development. […] Control mice were injected with an equivalent amount of vehicle control or amphotericin B (12.5 mg/kg). […] Mice were euthanized in a CO2 chamber at day 21.

[4] = Homo sapiens, A549, 44–46 h, alamar blue, read-out: A549 EC50 (AVE±SD)
[5] = Leishmania major, pH 4.9, 144 h, 32°C, read-out: L. major axenic amastigote-like EC50 (AVE±SD) Confirmation Alamar Blue
[6] = Leishmania major, 48 h, compounds from commercial supplier, 44 h + 4 h alamar blue, 28°C, read-out: L. major promastigote EC50 (AVE±SD) Confirmation Alamar Blue
[7] = Homo sapiens, A549, Table S1, PMLSC library samples, read-out: EC50 Ave ± SD, A549
[8] = Leishmania major, Table S1, PMLSC library samples, 10-point 0.01–5.00 µM, read-out: EC50 Ave ± SD, Lm
[9] = Leishmania major, 144 h, pH 4.9, read-out: L. major axenic amastigote-like EC50 (AVE±SD) Confirmation Alamar Blue
[10] = Leishmania major, read-out: EC50 Ave ± SD, Lm

Compound	EC50 (HeLa; Homo sapiens, HeLa) [nM]	EC50 (A549; [4]) [nM]	EC50 (MDA-MB-231; Homo sapiens, MDA-MB-231) [nM]	EC50 (IMR-90; Homo sapiens, IMR-90) [nM]	EC50 (PC-3; Homo sapiens, PC-3) [nM]	EC50 (L. major promastigotes [3]; Leishmania major) [nM]	EC50 (A549; [7]) [nM]	EC50 [1, 9] [nM]	EC50 (L. major promastigotes [2]; [10]) [nM]	other results
C[C@@H]1[C@H](O)[C@@H](C)/C=C/C=C/C=C/C=C/C=C/C=C/C=C/[C@H](O[C@@H]2O[C@H](C)[C@@H](O)[C@H](N)[C@@H]2O)C[C@@H]2O[C@](O)(C[C@@H](O)C[C@@H](O)[C@H](O)CC[C@@H](O)C[C@@H](O)CC(=O)O[C@H]1C)C[C@H](O)[C@H]2C(=O)O [Amphotericin B, reference compound]	> 50000	> 50000	> 50000	8700 ± 2400	> 50000	190 ± 60				EC50 [1, 5]: 380 ± 10 nM; EC50 (L. major promastigotes [2]; [6]): 210 ± 10 nM; EC50 (L. major promastigotes [2]; Leishmania major, assay optimization, read-out: EC50, L. major promastigotes, 384-well format): 207 ± 11 nM; reduction in footpad swelling (in vivo effects, summary) (L. major; summary statement in results/discussion): 85–90%
C[C@@]1(CO)[C@H](O)CC[C@@]2(C)[C@H]1CC[C@H]1C[C@@H]3C[C@@]12CC[C@]3(O)CO [Aphidicolin, reference compound]	> 50000	> 50000	> 50000	> 50000	> 50000	390 ± 110	> 5000			EC50 [1, 5]: 50 ± 10 nM; growth inhibitory activity in axenic amastigote-like assay [1]: comparable to amphotericin B; EC50 (L. major promastigotes [2]; [6]): 220 ± 20 nM; EC50 (L. major promastigotes [2]; [8]): 121 ± 20 nM
CCN(CC)CCN(C)C1CCC(c2ccccc2)CC1 (stereo not drawn) [CID 742546]						430 ± 300	> 5000	> 50000	827 ± 116	
Cc1cc(C)nc(/N=C2\SNSC2Cl)c1 (stereo not drawn) [CID 757789]						1940 ± 150	> 5000	3200 ± 800	353 ± 25	
COc1cccc2c(=O)c(C/C=C(/C)Cl)c(C)[nH]c12 [CID 760847]						200 ± 50	> 5000	210 ± 90	108 ± 23	growth inhibitory activity in axenic amastigote-like assay [1]: comparable to amphotericin B
Cc1ccc(S(=O)(=O)c2ccc(Oc3cccc(C)c3)cc2)cc1 [CID 786799]						2220 ± 110	> 5000	3600 ± 130	180 ± 35	
Cc1ccc(OCCCCn2ccnc2)c(Cl)c1 [CID 2851545]						340 ± 480	> 5000	11700 ± 500	133 ± 35	
O=C1C2ON(c3ccc(Br)cc3)C(c3ccccn3)C2C(=O)N1C1CCCCC1 (stereo not drawn) [CID 2946668]						350 ± 60	> 5000	1200 ± 400	515 ± 66	
CC(C)(C)c1ccc(C(=O)C2CCCN(C3CCC3)C2)cc1 (stereo not drawn) [CID 16187595]						40 ± 10		2300 ± 200	14 ± 13	EC50 (A549; Homo sapiens, A549, read-out: EC50 Ave ± SD, A549): > 5000 nM
CCN(CC)C(=S)SSC(=S)N(CC)CC [Disulfiram]	> 50000	> 50000	> 50000	> 50000	> 50000	190 ± 60	2160 ± 1220			EC50 [1, 5]: 130 ± 10 nM; growth inhibitory activity in axenic amastigote-like assay [1]: comparable to amphotericin B; EC50 (L. major promastigotes [2]; [6]): 500 ± 50 nM; EC50 (L. major promastigotes [2]; [8]): 263 ± 20 nM; decrease in footpad thickness (L. major; day 14): 25%; decrease in footpad thickness (L. major; day 21): 35%; reduction in footpad thickness (L. major; day 14 post-infection): ~43%; reduction in footpad thickness (L. major; day 21 post-infection): 50%
CN(C)CCOc1ccccc1Cc1ccccc1 [Phenytoloxamine, reference compound]	> 50000	> 50000	> 50000	> 50000	> 50000	300 ± 30	> 5000	> 50000	502 ± 87	
Pentamidine Isethionate [reference compound]										EC50 (HeLa): > 50000 nM; EC50 (A549; read-out: A549 EC50 (AVE±SD), 44–46 h, alamar blue): > 50000 nM; EC50 (A549; read-out: EC50 Ave ± SD, A549, Table S1, PMLSC library samples): > 5000 nM; EC50 (MDA-MB-231): > 50000 nM; EC50 (IMR-90): > 50000 nM; EC50 (PC-3): > 50000 nM; EC50 ([1]; read-out: L. major axenic amastigote-like EC50 (AVE±SD) Confirmation Alamar Blue, pH 4.9, 144 h, 32°C): 1260 ± 40 nM; EC50 (L. major promastigotes [2]; read-out: EC50 Ave ± SD, Lm, Table S1, PMLSC library samples, 10-point 0.01–5.00 µM): 46 ± 12 nM; primary hit (≥50% inhibition of signal readout) (L. major promastigotes [2]; single concentration 10 µM, LOPAC, UP-CMLD DP validation set or PMLSC library): primary hits; EC50 (L. major promastigotes [3]; 28°C, ViaCount, 0.1–50 µM): 730 ± 390 nM
